Tests used:
[1] = system: chondrogenic-induced MSCs stimulated by IL-1β; experiment: IL-1β-stimulated chondrogenic-induced MSCs in 3D PEGDA hydrogels: biochemical analysis; type: cell-based, goat; conditions: 10 ng/ml IL-1β, 21 days exposure
Method: (§1) Goat MSCs were isolated from 2- to 4-year-old goats (Thomas D. Morris, Inc., Reisterstown, Md.), as previously described. Briefly, bone marrow aspirates treated with 6,000 U/ml heparin were washed twice with PBS. Cells were plated at a density of 120,000 mononuclear cells/cm^2 and cultured in high glucose DMEM supplemented with 10% (v/v) FBS, 2 mM L-glutamine, 100 U/ml penicillin and 100 μg/ml streptomycin. The following day, tissue culture dishes were washed with PBS and medium was replaced. Medium changes were performed 3 times per week. Cells were passaged using 0.25% trypsin. They were used for experiments after passage four.
Photoencapsulation in Poly(Ethylene Glycol)-Diacrylate (PEGDA) Hydrogels and Construct Culturing. […]
(§2) Biochemical Analysis. The constructs (n=3 for chondrocyte experiments and n=4 for chondrogenic experiments) were lyophilized for 48 hours and the dry weights measured. […] Quantification of DNA content was carried out using a Hoescht Dye 33342 DNA assay. […] Quantification of sulfated glycosaminoglycans (sGAG), a molecule found in cartilage ECM, was carried out using a 1,9-dimethylmethylene blue (DMMB) dye assay; chondroitin sulfate was used to generate standard curves. Quantification of collagen was carried out via measuring hydroxyproline content after hydrolyzing in 6 N HCl overnight at 120° C. […]

[2] = system: chondrogenic-induced MSCs; experiment: Chondrogenic-induced MSCs in 3D PEGDA hydrogels: real-time PCR gene expression; type: cell-based, goat
Method: as §1
(§3) Photoencapsulation in Poly(Ethylene Glycol)-Diacrylate (PEGDA) Hydrogels and Construct Culturing. For all 3D culture experiments, cells were photoencapsulated in PEGDA hydrogels, as previously described. Briefly, 100 mg PEGDA (3.4 kDa, SunBio, Anyang City, South Korea) was dissolved in 1 ml sterile PBS. A photoinitiator solution of Irgacure® 2959 (CIBA Specialty Chemicals) was prepared by dissolving 100 mg of Irgacure® 2959 in 1 ml 70% ethanol. Five microliters of the Irgacure® 2959 solution was added to 1 ml of PEGDA solution. Cells were suspended in the hydrogel precursor solution at a density of 20 million cells/ml and polymerized in sterile molds. A high cell density was chosen as it has been shown. Based on our previous studies a high cell density was chosen to best to support a cell phenotype and differentiation and cell phenotype. Polymerization was carried out using UV light (365 nm, 3.2 mW/cm^2) exposure for 5 minutes.
For chondrogenesis experiments, the cell-laden hydrogels were cultured in chondrogenic induction medium (high glucose DMEM supplemented with 50 μg/ml ascorbic acid-2-phosphate, 40 μg/ml L-proline, 100 μg/ml sodium pyruvate, 1% ITS-premix (6.25 μg/ml insulin, 6.25 μg/ml transferrin, 6.25 ng/ml selenous acid, 1.25 mg/ml bovine serum albumin (BSA), 5.35 μg/ml linoleic acid (Collaborative Biomedical, BD Bioscience, Bedford, Mass.)) and 10 ng/ml TGF-β1 (Fitzgerald Industries International, Acton, Mass.) with specified concentrations of GalNAc-a or 100 nM dexamethasone (as a control). Constructs were cultured for 21 days with medium changes 3 times per week. For IL-1β stimulation, the cell-laden hydrogels were cultured for 3 days in chondrogenic induction medium supplemented with 10 ng/ml IL-1β. Constructs were cultured for an additional 21 days with chondrogenic induction medium supplemented with 10 ng/ml IL-1β and the specified concentration of GalNAc-a.
RNA Isolation and Real-Time PCR. Total RNA was extracted using TRIzol® reagent (Life Technologies, Grand Island, N.Y.) following the manufacturer's protocol. cDNA was synthesized using Superscript® II reverse transcriptase (Life Technologies, Grand Island, N.Y.) following the manufacturer's protocol. Real-time PCR was carried out using a StepOnePlus™ Real-Time PCR System (Life Technologies, Grand Island, N.Y.). mRNA amounts for bovine primers were calculated using the ΔΔCt method. Relative mRNA quantities for goat primers were calculated using the Pfaffl method.

Chondrocytes = experiment: WST-1 metabolic activity/toxicity screening of monolayer chondrocytes; type: cell-based, bovine; conditions: 3 days exposure, 0-320 μM tested
Method: Cell Isolation and Culturing. Bovine chondrocytes were isolated from 4- to 8-week-old calves (Research 87, Inc., Boylston, Mass.), as previously described. Briefly, cartilage was dissected from the femoral patellar groove and condyles and minced into approximately 1 mm^2 pieces. Cells were isolated from the tissue by digesting overnight at 37° C. with 2 mg/ml type II collagenase (Worthington Biochemical Corp., Lakewood, N.J.), 5% fetal bovine serum (FBS), 100 U/ml penicillin and 100 μg/ml streptomycin on an orbital shaker. The cell suspension was passed through a 70 μm cell strainer, followed by centrifugation. Cells were washed 3 times using sterile phosphate buffered saline (PBS). […]
Metabolic Activity/Toxicity Screening: Water Soluble Tetrazonium-1 (WST-1) Assay. […] Absorbance of the wells was read using a microplate reader at a wavelength of 450 nm. The absorbance of the wells containing WST-1 reagent with no cells was subtracted from the absorbance readings. Data is presented as the background subtracted reading normalized to 0 μM wells from five independent experiments for each hexosamine analog.

[3] = system: chondrogenic-induced MSCs; experiment: Chondrogenic-induced MSCs in 3D PEGDA hydrogels: biochemical analysis and histology; type: cell-based, goat; conditions: 21 days
Method: as §1
as §3, with “minutes. […]” for “minutes.”
as §2

[4] = system: IL-1β-stimulated chondrocytes; experiment: IL-1β-stimulated chondrocytes in 3D PEGDA hydrogels: biochemical analysis (DNA, sGAG, collagen), histology, immunohistochemistry; type: cell-based, bovine; conditions: 10 ng/ml IL-1β, 21 days
Method: Cell Isolation and Culturing. Bovine chondrocytes were isolated from 4- to 8-week-old calves (Research 87, Inc., Boylston, Mass.), as previously described. Briefly, cartilage was dissected from the femoral patellar groove and condyles and minced into approximately 1 mm^2 pieces. Cells were isolated from the tissue by digesting overnight at 37° C. with 2 mg/ml type II collagenase (Worthington Biochemical Corp., Lakewood, N.J.), 5% fetal bovine serum (FBS), 100 U/ml penicillin and 100 μg/ml streptomycin on an orbital shaker. The cell suspension was passed through a 70 μm cell strainer, followed by centrifugation. Cells were washed 3 times using sterile phosphate buffered saline (PBS). Chondrocyte medium was composed of high glucose Dulbecco's Modified Eagle's Medium (DMEM) supplemented with 10 mM HEPES, 0.4 mM L-proline, 50 μg/ml ascorbic acid, 10% (v/v) fetal bovine serum (FBS; Hyclone Laboratories, Inc., Logan, Utah), 0.1 mM non-essential amino acids, 100 U/ml penicillin and 100 μg/ml streptomycin.
as §3
For chondrocyte experiments, the cell-laden hydrogels were cultured in chondrocyte medium supplemented with 10 ng/ml IL-1β for 3 days. Following the initial 3 days, constructs were cultured with medium containing specific concentrations of hexosamine analog with 10 ng/ml IL-1β for an additional 21 days. The medium was changed 3 times per week.
Biochemical Analysis. The constructs (n=3 for chondrocyte experiments and n=4 for chondrogenic experiments) were lyophilized for 48 hours and the dry weights measured. Constructs were then homogenized in 125 μg/ml papainase (Worthington Biochemical Corp., Lakewood, N.J.) and digested for 16 hours at 60° C. Quantification of DNA content was carried out using a Hoescht Dye 33342 DNA assay. Calf thymus DNA was used to generate standard curves. Quantification of sulfated glycosaminoglycans (sGAG), a molecule found in cartilage ECM, was carried out using a 1,9-dimethylmethylene blue (DMMB) dye assay; chondroitin sulfate was used to generate standard curves. Quantification of collagen was carried out via measuring hydroxyproline content after hydrolyzing in 6 N HCl overnight at 120° C. The reaction of hydroxyproline with chloramine-T and p-dimethylaminobenzaldehyde was performed as a measure of total collagen content; hydroxyproline was used to generate standard curves.
Histology and Immunohistochemistry. Constructs were fixed in 10% formalin or 4% paraformaldehyde followed by dehydration in increasing concentrations of ethanol, embedded in paraffin and sliced into 5 μm sections. After paraffin removal and subsequent rehydration, sections were stained for proteoglycans using Safranin-O and fast green or prepared for immunohistochemistry. For immunohistochemical staining of type II collagen, endogenous peroxidase was quenched using 3% (v/v) hydrogen peroxide in methanol. Sections were then incubated at 37° C. with 2.5% (w/v) hyaluronidase and stained using a Histostain-SP Kit (AEC, Broad Spectrum) (Life Technologies, Grand Island, N.Y.) following the manufacturer's instructions. […]

[5] = both medium conditions, 21 days, dexamethasone 100 nM

## CCCC(=O)OC[C@H]1OC(O)[C@H](NC(C)=O)[C@@H](OC(=O)CCC)[C@H]1OC(=O)CCC (stereo partly drawn) [GalNAc-a, 3,4,6-O-Bu3GalNAc]
[1]
  DNA content: did not have an effect
  sGAG accumulation normalized to DNA: decreased sGAG accumulation
[2]; 50 μM to 150 μM, both medium conditions, 21 days
  SOX9 gene expression: decreased in a dose-dependent manner
[2]; 50 μM, ascorbic acid-containing medium, 21 days
  SOX9 gene expression: increased SOX9 expression
[2]; 50 μM, both medium conditions, 21 days
  type I collagen gene expression: initially increased
[2]; above 50 μM for GalNAc-a, dexamethasone 100 nM, both medium conditions
  type I collagen gene expression compared to no analog exposure: remained elevated
[2]; all analog concentrations, regardless of medium condition
  MMP13 gene expression: increased at all analog concentrations
[2]; [5]
  aggrecan gene expression: followed a similar trend as SOX9 expression
  type II collagen gene expression: decreased type II collagen expression
Chondrocytes
  concentration from which reduced viability was observed: ≥ 160 µM
[3]
  chondrogenic differentiation of the MSCs: inhibits chondrogenic differentiation
[3]; ascorbic acid-containing medium, GalNAc-a varying concentrations, dexamethasone 100 nM
  total collagen accumulation normalized to DNA: dose-dependent decrease
[3]; both medium conditions (with/without ascorbic acid), GalNAc-a varying concentrations, dexamethasone 100 nM
  sGAG accumulation normalized to DNA: dose-dependent decrease
[3]; with or without ascorbic acid
  DNA content: did not change
[4]; at 150 μM
  proteoglycan deposition (Safranin-O staining): further increase
  sGAG accumulation normalized to DNA: further increase
[4]; starting at 50 μM, comparison of the three analogs
  type II collagen deposition (immunohistochemistry): highest staining intensity
[4]; comparison of the three analogs
  cartilage-like tissue formation (sGAG content, proteoglycan and type II collagen staining): greatest cartilage-like tissue formation

Reference: patent US10227369B2, “Short-chain fatty acid hexosamine analogs and their use in tissue engineering applications” (THE JOHNS HOPKINS UNIVERSITY, priority 2013, dated 2019)
